Reference: PMC10057893, “Synthesis and Biological Evaluation of New Schiff Bases Derived from 4-Amino-5-(3-fluorophenyl)-1,2,4-triazole-3-thione” (Molecules, 2023)
Values after ≈ are worked out from the molar mass of the structure shown. Where two headings read alike, the source gives them in different places.

How the values were obtained:
MDA-MB-231 = assay: MTT cell viability assay; type: cell-based, human; settings: for IC50: Homo sapiens, MDA-MB-231, MTT, read-out: Cytotoxic activity IC50
Procedure: (§1) All the cell lines were purchased from the American Type Culture Collection (ATCC, Rockville, MD, USA) and cultured in strictly defined conditions according to the recommended ATCC protocol. The PC3 cells were cultured in RPMI 1640 (Roswell Park Memorial Institute, Biowest SAS, Nuaillé, France), while the MDA-MB-231 and HaCaT cells were maintained in DMEM (Dulbecco’s Modified Eagle’s Medium, Biowest SAS, Nuaillé, France) supplemented with 1% streptomycin and penicillin and in 10% heat-inactivated fetal bovine serum (FBS, Gibco BRL San Francisco, CA, USA) with 1% streptomycin and penicillin. The cells were incubated in a 37 °C/5% CO2 humidified incubator. They were cultured until 80–90% confluence was achieved. Then, they were harvested by treatment with 0.25% trypsin-0.02% EDTA (Gibco BRL, San Francisco, CA, USA) and used in the experiments. Untreated cells were used as a control. […] After 24 h of incubation, the culture medium was replaced with a fresh medium. […] Then, the medium was aspirated and formed formazan crystals were solubilized by adding isopropanol-DMSO mixture (1:1 vol). The intensity of the dissolved crystals was measured using a UVM 340 reader (ASYS Hitech GmbH, Eugendorf, Austria) at a wavelength of 570 nm. Cell viability was estimated by the percentage of MTT reduction in cells to which the tested compounds were added, compared to the control sample, where only the medium was added. The experiments were repeated three times. The IC50 was calculated using GraphPad Prism 9.0.0 (GraphPad Software).

PC3 = assay: MTT cell viability assay; type: cell-based, human; settings: for IC50: Homo sapiens, PC-3, PC3, MTT, read-out: Cytotoxic activity IC50
Procedure: as §1

MTT cell viability assay = type: cell-based; settings: human, HaCaT cells (immortal keratinocytes), HaCaT normal cell line, read-out: Cytotoxic activity IC50 (converted)
Procedure: as §1

[1] = test system: Bacillus subtilis ATCC 6633; assay: Broth microdilution MIC/MBC, antibacterial; type: cell-based; settings: ATCC6633
Procedure: (§2) The minimal inhibitory concentration (MIC) was determined with the microdilution technique using 96-well polystyrene microplates (Medlab, Poland), as indicated by the European Committee on Antimicrobial Susceptibility Testing (EUCAST) guidelines. In this process, stock solutions of each tested Schiff base dissolved in dimethylsulphoxide (DMSO, Stanlab, Poland) were used at a concentration of 50 mg/mL. Before in vitro antibacterial activity detection, the basic concentration of 1000 µg/mL of each compound was prepared with Mueller–Hinton broth medium (MHB, BioMaxima, Lublin, Poland). The experiment was prepared using Mueller–Hinton broth medium in 96-well microplates. A series of two-fold dilutions of the tested compounds in the concentration range from 0.49 to 1000 μg/mL was made in culture broth medium. Then, 2 μL of bacterial inoculum with a density of 0.5 McFarland standard was added to each well. Each well was filled with a total volume of 100 μL. Then, the microtiter plates were incubated for 18 ± 2 h at 35 °C. After the incubation, the results were spectrophotometrically determined in Biotek ELx800 (Biokom, Janki, Poland) at 600 nm (OD600). The lowest concentration of the tested compounds with the absence of bacterial growth was determined as an MIC. Three replicates for each strain and compound were performed.
(§3) After incubation, 5 μL of the broth media cultured with bacteria or fungi were removed from each well of the plates used in the MIC experiments. Next, they were culturd onto the surface of the MHA medium (BioMaxima, Lublin, Poland) plate for bacteria or MHA +2% glucose plate for yeasts. The inoculated plates were incubated in the conditions mentioned above. After incubation, a visual reading of MBC or MFC values was made. […] Three replicates for each strain and compound were performed.

[2] = test system: Escherichia coli ATCC 25922; assay: Broth microdilution MIC/MBC, antibacterial; type: cell-based; settings: ATCC25922, Escherichia coli ATCC 25922
Procedure: as §2, §3

[3] = test system: Klebsiella pneumoniae ATCC 13883; assay: Broth microdilution MIC/MBC, antibacterial; type: cell-based; settings: ATCC13883, Klebsiella pneumoniae ATCC 13883
Procedure: as §2, §3

[4] = test system: Micrococcus luteus ATCC 10240; assay: Broth microdilution MIC/MBC, antibacterial; type: cell-based; settings: ATCC10240
Procedure: as §2, §3

[5] = test system: Pseudomonas aeruginosa ATCC 27853; assay: Broth microdilution MIC/MBC, antibacterial; type: cell-based; settings: ATCC27853
Procedure: as §2, §3

[6] = test system: Staphylococcus aureus ATCC 6538; assay: Broth microdilution MIC/MBC, antibacterial; type: cell-based; settings: ATCC6538
Procedure: as §2, §3

[7] = test system: Staphylococcus epidermidis ATCC 12228; assay: Broth microdilution MIC/MBC, antibacterial; type: cell-based; settings: ATCC12228
Procedure: as §2, §3

[8] = test system: Candida albicans ATCC 10231; assay: Broth microdilution MIC/MFC, antifungal; type: cell-based; settings: for MIC: ATCC10231
Procedure: (§4) To determine the antifungal activity of the newly synthesized Schiff bases against the reference strains of Candida spp., the broth microdilution method was used according to the EUCAST [52] and Clinical and Laboratory Standards Institute (CLSI) guidelines with some modifications to the medium. Before in vitro antifungal activity detection, the basic concentration of 1000 µg/mL of each compound was prepared with Mueller–Hinton broth (BioMaxima, Lublin, Poland) supplemented with 2% glucose (MHB+2% glucose). […] The final concentrations of the Schiff bases ranged from […] to 1000 µg/mL. All the reference strains of Candida spp. used were first subcultured to the Mueller–Hinton agar medium (BioMaxima, Lublin, Poland) with 2% glucose (MHA +2% glucose) at 37 °C for 24 h. Next, 2 µL of appropriate fungal suspensions was added to each well containing 100 µL of MHB + 2% glucose and the various concentrations of the tested Schiff bases.
as §3

Candida auris CDC B11903 = assay: Broth microdilution MIC/MFC, antifungal; type: cell-based; settings: Candidozyma auris, CDCB11903
Procedure: as §4, §3

[9] = test system: Candida glabrata ATCC 15126; assay: Broth microdilution MIC/MFC, antifungal; type: cell-based; settings: Nakaseomyces glabratus, ATCC15126
Procedure: as §4, §3

[10] = test system: Candida glabrata ATCC 90030; assay: Broth microdilution MIC/MFC, antifungal; type: cell-based; settings: Nakaseomyces glabratus, ATCC90030
Procedure: as §4, §3

[11] = test system: Candida krusei ATCC 14243; assay: Broth microdilution MIC/MFC, antifungal; type: cell-based; settings: Pichia kudriavzevii, ATCC14243
Procedure: as §4, §3

[12] = test system: Candida lusitaniae ATCC 3449; assay: Broth microdilution MIC/MFC, antifungal; type: cell-based; settings: Clavispora lusitaniae, ATCC3449
Procedure: as §4, §3

[13] = test system: Candida tropicalis ATCC 1369; assay: Broth microdilution MIC/MFC, antifungal; type: cell-based; settings: ATCC1369
Procedure: as §4, §3

Row | MIC [1] [µg/mL] | MIC [2] [µg/mL] | MIC [4] [µg/mL] | MIC [5] [µg/mL] | MIC [6] [µg/mL] | MIC [7] [µg/mL] | MIC [8] [µg/mL] | MIC (Candida auris CDC B11903) [µg/mL] | MIC [9] [µg/mL] | MIC [10] [µg/mL] | MIC [11] [µg/mL] | MIC [12] [µg/mL] | MIC [13] [µg/mL] | melting point [°C] | Compound | IC50 (MDA-MB-231; 72 h (table footnote)) [µM] | IC50 (PC3; 72 h (table footnote)) [µM] | IC50 at 72 h (MTT cell viability assay; 72 h (table footnote)) [µM] | IC50 (MDA-MB-231; same value in µg/mL) [µg/mL] | IC50 (PC3; same value in µg/mL) [µg/mL] | IC50 at 72 h (MTT cell viability assay; same value in µg/mL) [µg/mL] | also measured
1 | > 1000 | > 1000 | > 1000 | > 1000 | > 1000 | > 1000 | 250 (≈ 800 µM) | > 1000 | > 1000 | > 1000 | > 1000 | > 1000 | > 1000 | 227 to 230 | Cc1ccc(C=Nn2c(-c3cccc(F)c3)n[nH]c2=S)cc1 [RO1, 5-(3-fluorophenyl)-4-[(4-methylbenzylidene)amino]-2,4-dihydro-3H-1,2,4-triazole-3-thione] | > 100 | > 100 | > 100 | > 31.2 | > 31.2 | > 31.2 | MIC [3]: > 1000 µg/mL; MFC ([8]; ATCC10231, read-out: MFC): > 1000 µg/mL
2 | 1000 (≈ 3050 µM) | 1000 (≈ 3050 µM) | 125 (≈ 381 µM) | > 1000 | 500 (≈ 1520 µM) | 500 (≈ 1520 µM) | 62.5 (≈ 190 µM) | 1000 (≈ 3050 µM) | 1000 (≈ 3050 µM) | > 1000 | 500 (≈ 1520 µM) | 1000 (≈ 3050 µM) | 1000 (≈ 3050 µM) | 215 to 216 | COc1ccc(C=Nn2c(-c3cccc(F)c3)n[nH]c2=S)cc1 [RO4, 5-(3-fluorophenyl)-4-[(4-methoxybenzylidene)amino]-2,4-dihydro-3H-1,2,4-triazole-3-thione] | > 100 | > 100 | > 100 | > 38.8 | > 38.8 | > 38.8 | MIC [3]: 1000 µg/mL (≈ 3050 µM); MBC [4]: > 1000 µg/mL; MBC [5]: > 1000 µg/mL; MBC [6]: > 1000 µg/mL; MBC [7]: > 1000 µg/mL; MFC [8]: >1000 µg/mL; MFC ([8]; ATCC10231, read-out: MFC): > 1000 µg/mL; MFC [11]: > 1000 µg/mL
3 | – | – | – | – | – | – | – | – | – | – | – | – | – | 189 to 192 | CCCOc1ccc(/C=N/n2c(-c3cccc(F)c3)n[nH]c2=S)cc1 [RO6, 5-(3-fluorofenylo)-4-[(4-propoxybenzylidene)amino]-2,4-dihydro-3H-1,2,4-triazole-3-thione] | – | – | – | – | – | – | –

Second part, the molecule before the results:

Row | Compound | MIC [1] [µg/mL] | MIC [2] [µg/mL] | MIC [4] [µg/mL] | MIC [5] [µg/mL] | MIC [6] [µg/mL] | MIC [7] [µg/mL] | MIC [8] [µg/mL] | MIC (Candida auris CDC B11903) [µg/mL] | MIC [9] [µg/mL] | MIC [10] [µg/mL] | MIC [11] [µg/mL] | MIC [12] [µg/mL] | MIC [13] [µg/mL] | melting point [°C] | IC50 (MDA-MB-231; 72 h (table footnote)) [µM] | IC50 (PC3; 72 h (table footnote)) [µM] | IC50 at 72 h (MTT cell viability assay; 72 h (table footnote)) [µM] | IC50 (MDA-MB-231; same value in µg/mL) [µg/mL] | IC50 (PC3; same value in µg/mL) [µg/mL] | IC50 at 72 h (MTT cell viability assay; same value in µg/mL) [µg/mL] | also measured
4 | COc1cccc2c1C(=O)c1c(O)c3c(c(O)c1C2=O)C[C@@](O)(C(=O)CO)C[C@@H]3O[C@H]1C[C@H](N)[C@H](O)[C@H](C)O1 [Doxorubicin, reference compound] | – | – | – | – | – | – | – | – | – | – | – | – | – | – | 0.83 | 0.3 | 0.3 | – | – | – | SI (Selectivity Index) (MDA-MB-231; IC50 normal cell line (HaCaT)/IC50 MDA-MB-231): 0.36; SI (Selectivity Index) (PC3; IC50 normal cell line (HaCaT)/IC50 PC3): 1
5 | O=[N+]([O-])c1ccc(C=Nn2c(-c3cccc(F)c3)n[nH]c2=S)cc1 [RO3, 5-(3-fluorophenyl)-4-[(4-nitrobenzylidene)amino]-2,4-dihydro-3H-1,2,4-triazole-3-thione] | > 1000 | > 1000 | > 1000 | > 1000 | > 1000 | > 1000 | 500 (≈ 1460 µM) | 1000 (≈ 2910 µM) | 1000 (≈ 2910 µM) | > 1000 | 1000 (≈ 2910 µM) | 1000 (≈ 2910 µM) | 500 (≈ 1460 µM) | 230 to 231 | > 100 | > 100 | > 100 | > 34.3 | > 34.3 | > 34.3 | MIC [3]: > 1000 µg/mL
6 | CCCCOc1ccc(C=Nn2c(-c3cccc(F)c3)n[nH]c2=S)cc1 [RO8, 4-[(4-butoxybenzylidene)amino]-5-(3-fluorophenyl)-2,4-dihydro-3H-1,2,4-triazole-3-thione] | 1000 (≈ 2700 µM) | 1000 (≈ 2700 µM) | 125 (≈ 337 µM) | > 1000 | 250 (≈ 675 µM) | 250 (≈ 675 µM) | 500 (≈ 1350 µM) | > 1000 | 500 (≈ 1350 µM) | > 1000 | > 1000 | > 1000 | > 1000 | 183 to 185 | > 100 | > 100 | > 100 | > 37 | > 37 | > 37 | MIC [3]: > 1000 µg/mL; MBC [4]: > 1000 µg/mL; MBC [6]: > 1000 µg/mL; MBC [7]: > 1000 µg/mL; MFC ([8]; ATCC10231, read-out: MFC): > 1000 µg/mL; MFC [9]: > 1000 µg/mL
7 | Cc1cccc(C=Nn2c(-c3cccc(F)c3)n[nH]c2=S)c1 [RO9, 5-(3-fluorophenyl)-4-[(3-methylbenzylidene)amino]-2,4-dihydro-3H-1,2,4-triazole-3-thione] | 500 (≈ 1600 µM) | – | 125 (≈ 400 µM) | > 1000 | 125 (≈ 400 µM) | 250 (≈ 800 µM) | 1000 (≈ 3200 µM) | > 1000 | > 1000 | > 1000 | > 1000 | > 1000 | > 1000 | 232 to 234 | > 100 | > 100 | > 100 | > 31.2 | > 31.2 | > 31.2 | MBC [1]: > 1000 µg/mL; MBC [4]: > 1000 µg/mL; MBC [6]: > 1000 µg/mL; MBC [7]: > 1000 µg/mL; MFC ([8]; ATCC10231, read-out: MFC): > 1000 µg/mL
